Reference: ChEMBL document CHEMBL1862790, “Optimisation of fenarimol series for the treatment of Chagas disease”

Experiments:
[1] = DNDI: Cytotoxicity against L-6 rat myoblasts from skeletal muscle cells; details: L6 rat skeletal muscle myoblast cells, IC50
Trypanosoma cruzi [2] = test: microbe, parasite or virus in culture; assay type: functional, Tulahuen LacZ, Clone C4; details: Trypanosoma cruzi, Tulahuen LacZ, Clone C4
Trypanosoma cruzi [3] = test: microbe, parasite or virus in culture; assay type: functional, organism-based, Tulahuen LacZ, Clone C4; details: Trypanosoma cruzi, Tulahuen LacZ, Clone C4

| IC90 (Trypanosoma cruzi [2]) [nM] | IC50 (Trypanosoma cruzi [3]) [nM] | Compound | IC50 [1] [µM] |
| --- | --- | --- | --- |
| 320 | 150 | O=C(NC1CCCC1)c1cccc(C(O)(c2ccc(Cl)cc2)c2cccnc2)c1 (configuration not stated) | 60.8 |
| 880 | 470 | O=S(=O)(NC1CCN(C(c2cnccn2)c2ccc(F)cc2F)CC1)c1ccccc1 (configuration not stated) | 67.7 |
| 900 | 260 | O=S(=O)(NC1CCN(C(c2ccc(C(F)(F)F)cc2)c2cnccn2)CC1)c1ccccc1 (configuration not stated) | 55.9 |
| 760 | 270 | O=C(NC1CCN(C(c2cnccn2)c2ccc(F)cc2F)CC1)c1ccc(Cl)cc1 (configuration not stated) | 66.9 |
| 940 | 450 | CS(=O)(=O)N1CCC(CNC(c2ccc(C(F)(F)F)cc2)c2cnccn2)CC1 (configuration not stated) | > 100 |
| 5420 | 1890 | CCS(=O)(=O)NC1CCN(C(c2cnccn2)c2ccc(F)cc2F)CC1 (configuration not stated) | > 100 |
| 3170 | 1440 | CC(=O)NC1CCN(C(c2ccc(C(F)(F)F)cc2)c2cnccn2)CC1 (configuration not stated) | > 100 |
| 460 | 130 | O=S(=O)(c1ccc(Cl)cc1)N1CCN(C(c2ccc(Cl)cc2)c2cncnc2)CC1 (configuration not stated) | 29 |
| 720 | 200 | O=C(NC1CCN(C(c2ccc(C(F)(F)F)cc2)c2cnccn2)CC1)c1ccccc1 (configuration not stated) | > 100 |
| > 1000 | 490 | OC(c1ccc(Cl)cc1)(c1cccnc1)c1cnc(Cl)s1 (configuration not stated) | > 100 |
| > 1000 | > 1000 | CC(C)CC(=O)NC1CCN(C(c2cnccn2)c2ccc(F)cc2F)CC1 (configuration not stated) | > 100 |
| 900 | 460 | O=C(NC1CCN(C(c2cnccn2)c2ccc(F)cc2F)CC1)c1ccc(C(F)(F)F)cc1 (configuration not stated) | 63.6 |
| 320 | 66 | O=S(=O)(c1ccccc1)N1CCN(C(c2ccc(Cl)cc2)c2cncnc2)CC1 (configuration not stated) | > 76.1 |
| 210 | 60 | O=C(NC1CCCCC1)c1cccc(C(O)(c2ccc(Cl)cc2)c2cccnc2)c1 (configuration not stated) | 52.3 |
| 620 | 220 | O=S(=O)(Cc1ccccc1)N1CCN(C(c2ccc(Cl)cc2)c2cncnc2)CC1 (configuration not stated) | 63 |
| > 1000 | > 1000 | CC(=O)NC1CCN(C(c2cnccn2)c2ccc(F)cc2F)CC1 (configuration not stated) | > 100 |
| 3020 | 1220 | CS(=O)(=O)NC1CCN(C(c2ccc(C(F)(F)F)cc2)c2cnccn2)CC1 (configuration not stated) | > 100 |
| 870 | 230 | O=C1OC(c2ccc(Cl)cc2)(c2cccnc2)c2ccccc21 (configuration not stated) | 84.8 |
| 300 | 98 | CC(C)CNC(=O)c1cccc(C(O)(c2ccc(Cl)cc2)c2cccnc2)c1 (configuration not stated) | 60.5 |
| 870 | 250 | O=C(NC1CCN(C(c2ccc(C(F)(F)F)cc2)c2cnccn2)CC1)C1CCCCC1 (configuration not stated) | > 100 |
| 130 | 38 | CON(C)C(=O)c1cccc(C(O)(c2ccc(Cl)cc2)c2cccnc2)c1 (configuration not stated) | > 100 |
| 850 | 65 | O=S(=O)(C1CCCCC1)N1CCN(C(c2ccc(Cl)cc2)c2cncnc2)CC1 (configuration not stated) | 56.3 |
| 68 | 27 | CC(C)(C)OC(=O)N1CCN(C(c2ccc(Cl)cc2)c2cccnc2)CC1 (configuration not stated) | 47.8 |

| IC90 (Trypanosoma cruzi [2]) [nM] | IC50 (Trypanosoma cruzi [3]) [nM] | Compound | IC50 [1] [µM] |
| --- | --- | --- | --- |
| > 1000 | > 1000 | O=S(=O)(NC1CCN(C(c2cnccn2)c2ccc(F)cc2F)CC1)c1ccc(Cl)cc1 (configuration not stated) | 34.3 |
| 995 | 590 | CNC(=O)c1cccc(C(O)(c2ccc(Cl)cc2)c2cccnc2)c1 (configuration not stated) | > 100 |
| > 1000 | > 1000 | CCC(=O)NC1CCN(C(c2cnccn2)c2ccc(F)cc2F)CC1 (configuration not stated) | > 100 |
| 7540 | 880 | CS(=O)(=O)N1CCN(C(c2ccc(Cl)cc2)c2cncnc2)CC1 (configuration not stated) | > 100 |
| > 1000 | 590 | O=S(=O)(NC1CCN(C(c2ccc(C(F)(F)F)cc2)c2cnccn2)CC1)c1ccc(C(F)(F)F)cc1 (configuration not stated) | 18.1 |
| 930 | 550 | O=C(NC1CCN(C(c2cnccn2)c2ccc(F)cc2F)CC1)c1ccccc1 (configuration not stated) | > 100 |
| > 1000 | > 1000 | O=C(Cc1ccccc1)NC(c1ccc(C(F)(F)F)cc1)c1cnccn1 (configuration not stated) | > 100 |
| > 1000 | > 1000 | O=C(NC1CCN(C(c2cnccn2)c2ccc(F)cc2F)CC1)C1CC1 (configuration not stated) | > 100 |
| 3540 | 750 | CC(C)CS(=O)(=O)NC1CCN(C(c2cnccn2)c2ccc(F)cc2F)CC1 (configuration not stated) | > 100 |
| > 1000 | 700 | O=C(Cc1ccccc1)NC1CCN(C(c2cnccn2)c2ccc(F)cc2F)CC1 (configuration not stated) | > 100 |
| > 1000 | 720 | O=S(=O)(Cc1ccccc1)NC1CCN(C(c2cnccn2)c2ccc(F)cc2F)CC1 (configuration not stated) | > 100 |
| 280 | 130 | CC(C)(C)OC(=O)N1CCN(C(c2ccc(Cl)cc2)c2cncnc2)CC1 (configuration not stated) | > 100 |
| 4830 | 850 | CCC(=O)N1CCN(C(c2ccc(Cl)cc2)c2cncnc2)CC1 (configuration not stated) | > 100 |
| > 1000 | 250 | CN(C)C(=O)NC1CCN(C(c2ccc(C(F)(F)F)cc2)c2cnccn2)CC1 (configuration not stated) | > 100 |
| > 1000 | 520 | CC(C)c1ccc(S(=O)(=O)NC2CCN(C(c3ccc(C(F)(F)F)cc3)c3cnccn3)CC2)cc1 (configuration not stated) | 18.4 |
| 920 | 500 | O=C(C1CC1)N1CCN(C(c2ccc(Cl)cc2)c2cncnc2)CC1 (configuration not stated) | > 100 |
| 320 | 150 | O=C(c1ccc(C(F)(F)F)cc1)N1CCN(C(c2ccc(Cl)cc2)c2cncnc2)CC1 (configuration not stated) | 54.1 |
| > 1000 | 850 | CC(C)c1ccc(S(=O)(=O)NC2CCN(C(c3cnccn3)c3ccc(F)cc3F)CC2)cc1 (configuration not stated) | 25.5 |
| 910 | 430 | CC(C)CC(=O)N1CCN(C(c2ccc(Cl)cc2)c2cncnc2)CC1 (configuration not stated) | > 100 |
| > 1000 | > 1000 | CCN1CCC(NC(c2ccc(C(F)(F)F)cc2)c2cnccn2)CC1 (configuration not stated) | > 100 |
| 650 | 260 | CC(C)(C)OC(=O)NC1CCN(C(c2cnccn2)c2ccc(F)cc2F)CC1 (configuration not stated) | > 100 |
| > 1000 | 700 | O=S(=O)(NC1CCN(C(c2ccc(C(F)(F)F)cc2)c2cnccn2)CC1)c1ccc(Cl)cc1 (configuration not stated) | 18.9 |
| 56 | 14 | CC(C)N(C(=O)c1cccc(C(O)(c2ccc(Cl)cc2)c2cccnc2)c1)C(C)C (configuration not stated) | 54.7 |

| IC90 (Trypanosoma cruzi [2]) [nM] | IC50 (Trypanosoma cruzi [3]) [nM] | Compound | IC50 [1] [µM] |
| --- | --- | --- | --- |
| > 1000 | > 1000 | O=S(=O)(NC1CCN(C(c2cnccn2)c2ccc(F)cc2F)CC1)c1ccc(C(F)(F)F)cc1 (configuration not stated) | 29.4 |
| 4980 | 1380 | CS(=O)(=O)NC1CCN(C(c2cnccn2)c2ccc(F)cc2F)CC1 (configuration not stated) | > 100 |
| 920 | 320 | O=C(C1CCCCC1)N1CCN(C(c2ccc(Cl)cc2)c2cncnc2)CC1 (configuration not stated) | > 100 |
| 410 | 180 | CN(C)C(=O)c1cccc(C(O)(c2ccc(Cl)cc2)c2cccnc2)c1 (configuration not stated) | > 100 |
| 950 | 500 | O=C(NCCN1CCOCC1)c1cccc(C(O)(c2ccc(Cl)cc2)c2cccnc2)c1 (configuration not stated) | > 100 |
| 720 | 230 | CC(C)S(=O)(=O)N1CCN(C(c2ccc(Cl)cc2)c2cncnc2)CC1 (configuration not stated) | > 100 |
| 120 | 34 | O=C(c1cccc(C(O)(c2ccc(Cl)cc2)c2cccnc2)c1)N1CCOCC1 (configuration not stated) | > 100 |
| 880 | 550 | CC(C)CS(=O)(=O)NC1CCN(C(c2ccc(C(F)(F)F)cc2)c2cnccn2)CC1 (configuration not stated) | 62.3 |
| 710 | 210 | CC(C)(C)OC(=O)N1CCC(NC(c2cnccn2)c2ccc(F)cc2F)CC1 (configuration not stated) | > 100 |
| 7600 | 1040 | CCC(=O)NC1CCN(C(c2ccc(C(F)(F)F)cc2)c2cnccn2)CC1 (configuration not stated) | > 100 |
| 780 | 310 | O=S(=O)(Cc1ccccc1)NC1CCN(C(c2ccc(C(F)(F)F)cc2)c2cnccn2)CC1 (configuration not stated) | 54.9 |
| 78 | 24 | CC(C)c1ccc(S(=O)(=O)N2CCN(C(c3ccc(Cl)cc3)c3cncnc3)CC2)cc1 (configuration not stated) | 46.1 |
| > 1000 | 290 | O=S(=O)(c1ccc(C(F)(F)F)cc1)N1CCN(C(c2ccc(Cl)cc2)c2cncnc2)CC1 (configuration not stated) | 57 |
| > 1000 | > 1000 | Clc1ccc(C(c2cncnc2)N2CCNCC2)cc1 (configuration not stated) | > 100 |
| > 1000 | 800 | O=C(NC1CCN(C(c2cnccn2)c2ccc(F)cc2F)CC1)C1CCCCC1 (configuration not stated) | > 100 |
| 950 | 500 | O=C(c1ccccc1)N1CCN(C(c2ccc(Cl)cc2)c2cncnc2)CC1 (configuration not stated) | 75.5 |
| 280 | 150 | CCN(CC)C(=O)c1cccc(C(O)(c2ccc(Cl)cc2)c2cccnc2)c1 (configuration not stated) | > 100 |
| > 1000 | > 1000 | OC(c1cccnc1)c1ccc(Cl)cc1F (configuration not stated) | > 100 |
| 6470 | 1140 | CCS(=O)(=O)NC1CCN(C(c2ccc(C(F)(F)F)cc2)c2cnccn2)CC1 (configuration not stated) | > 100 |
| > 1000 | > 1000 | CCC(=O)NC(c1ccc(C(F)(F)F)cc1)c1cnccn1 (configuration not stated) | > 100 |
| 140 | 47 | CCS(=O)(=O)N1CCN(C(c2ccc(Cl)cc2)c2cccnc2)CC1 (configuration not stated) | > 100 |
| 400 | 160 | O=C(NCc1ccccc1)c1cccc(C(O)(c2ccc(Cl)cc2)c2cccnc2)c1 (configuration not stated) | 84 |
| > 1000 | > 1000 | CN(C)C(=O)NC1CCN(C(c2cnccn2)c2ccc(F)cc2F)CC1 (configuration not stated) | > 100 |
